Where two headings read alike, the source gives them in different places. Where a SMILES comes first, the peptide text is derived from it. Where no end group is shown, it is not given here. [ ]: non-standard residue; d: D form. The star is where a group is joined. Hexanoyl = CCCCCC(=O)*; Aib = CC(C)(N)C(=O)O
What was measured:
[1] = biological target: T1, rat VPAC2 receptor (Rattus norvegicus, UniProt P35000); assay: DiscoveRx in vitro potency, CHO-PO cells transiently transfected with rat VPAC 2 receptor DNA; type: cell-based; parameters: expressed in transfected cells; host or cells: CHO-PO, transient
T1 sequence (P35000 23-437): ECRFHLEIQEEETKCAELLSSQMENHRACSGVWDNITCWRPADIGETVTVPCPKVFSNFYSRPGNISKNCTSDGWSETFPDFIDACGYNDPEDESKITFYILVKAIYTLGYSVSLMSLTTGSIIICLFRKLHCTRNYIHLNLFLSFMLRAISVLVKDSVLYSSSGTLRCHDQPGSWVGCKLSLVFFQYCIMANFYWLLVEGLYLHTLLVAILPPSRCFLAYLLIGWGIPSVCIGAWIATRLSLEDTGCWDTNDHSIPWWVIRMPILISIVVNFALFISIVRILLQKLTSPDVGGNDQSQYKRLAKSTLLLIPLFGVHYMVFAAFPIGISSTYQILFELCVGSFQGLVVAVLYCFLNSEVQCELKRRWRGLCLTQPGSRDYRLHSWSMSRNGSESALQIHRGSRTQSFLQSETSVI
Procedure: Also, the cells are washed twice. […] The stimuli are present for 30 minutes. Then, the assay buffer is gently removed.

[2] = in vivo; conditions: Wistar, rat, iv
Procedure: An IVGTT with glucose is given immediately after T=0 to 6 animals per condition. Samples are taken at 0, 2, 4, 6, and 10 minutes after injection.
For cell handling, Plate 50,000 cells/well and keep in culture over night. Wash cell twice in PBS and add 50 μl/well stimulation medium consisting of PBS+1.2 MgCl2, 1.3 CaCl2, 2 glucose and 0.5 IBMX. Incubate 15 minutes and add 50 μl/well of the plasma samples (see layout below). Incubate 30 minutes, remove the supernatant and proceed as normal with the DiscoveRx assay. Prepare plates in duplicate. Protease and peptidase inhibitor are present in all plasma samples.

[3] = biological target: T1, rat VPAC2 receptor; assay: Adenylate cyclase activation on membrane preparations expressing rat VPAC2 receptor; type: biochemical; parameters: expressed in transfected cells; host or cells: CHO cells, crude membranes; conditions: for VPAC2 cAMP max: maximal increase in cyclic AMP production (over basal) per minute and per mg protein; for VPAC1/VPAC2 ratio of EC50: rat receptors
Procedure: (§1) All studies are performed on crude membranes prepared from three different cell cultures expressing the different recombinant receptors, using methodology that is known in the literature. Duplicate values are obtained for each assay.
(§2) The selectivity of the VPAC2 receptor peptide agonists of the present invention are tested on the rat VPAC1 and VPAC2 receptors recombinantly expressed in CHO cells. The compound of the invention were evaluated in receptor binding & adenylate cyclase activation assays.
(§3) Dose-effect curves of adenylate cyclase activation were generated using the VPAC2 receptor peptide agonists (10^−11 to 10^−6 M, two concentrations per log) of the present invention.

[4] = biological target: T2, rat VPAC1 receptor (Rattus norvegicus, UniProt P30083); assay: Adenylate cyclase activation on membrane preparations expressing rat VPAC1 receptor; type: biochemical; parameters: expressed in transfected cells; host or cells: CHO cells, crude membranes; conditions: for VPAC1 cAMP max: maximal increase in cyclic AMP production (over basal) per minute and per mg protein
T2 sequence (P30083 31-459): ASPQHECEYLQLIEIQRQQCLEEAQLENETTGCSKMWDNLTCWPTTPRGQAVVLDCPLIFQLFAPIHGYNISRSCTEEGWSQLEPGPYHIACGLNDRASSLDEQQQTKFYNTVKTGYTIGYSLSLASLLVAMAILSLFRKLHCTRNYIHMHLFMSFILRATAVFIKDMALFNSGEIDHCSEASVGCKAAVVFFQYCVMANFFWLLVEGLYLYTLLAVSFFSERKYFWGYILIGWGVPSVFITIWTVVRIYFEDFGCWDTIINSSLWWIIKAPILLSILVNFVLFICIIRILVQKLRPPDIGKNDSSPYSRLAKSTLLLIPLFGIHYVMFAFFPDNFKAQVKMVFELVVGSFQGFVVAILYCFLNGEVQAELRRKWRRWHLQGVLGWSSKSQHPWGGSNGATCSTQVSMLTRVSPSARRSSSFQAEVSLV
Procedure: as §1, §2, §3
Adenylate cyclase activity was determined by the procedure of Salomon et al. (1974), A highly sensitive adenylate cyclase assay. Analytical Biochemistry 58 (1974. Membrane proteins ([…]) are incubated in a total volume of […] containing 0.5 mM [^32P]-ATP, 10 µM GTP, 5 mM MgCl2, 0.5 mM EGTA, 1 mM cAMP, 1 mM theophylline, 10 mM phospho(enol)pyruvate, […] pyruvate kinase and 30 mM Tris-HCl at a final pH of 7.8. The reaction is initiated by membrane addition and is terminated after 15 min incubation at 37° C. by addition of 0.5 ml of 0.5% sodium dodecyl-sulfate solution containing 0.5 mM ATP, 0.5 mM cAMP and […] [^3H]-cAMP. cAMP was separated from ATP by two successive chromatographies on Dowex 50Wx8 and neutral alumina.

[5] = biological target: T1, rat VPAC2 receptor; assay: Competition binding on recombinant rat VPAC2 receptor expressed in CHO cells, 125I-RO 25-1553 tracer; parameters: expressed in transfected cells; host or cells: CHO cells, crude membranes; conditions: for VPAC1/VPAC2 ratio between the IC50 values (index of selectivity): rat receptors, binding
Procedure: (§4) The peptide samples are stored frozen and thawed prior to the assay. […] All peptide sample and reference compound dilutions are performed in PBS. Peptides solutions are kept in the cold room for four days. Stock solutions are stored at −80° C. New dilution curves are prepared every week.
(§5) Each assay is done in duplicate and performed on two different membrane preparations.

[6] = biological target: T2, rat VPAC1 receptor; assay: Competition binding on recombinant rat VPAC1 receptor expressed in CHO cells, 125I-VIP tracer; parameters: expressed in transfected cells; host or cells: CHO cells, crude membranes
Procedure: as §4, §5

[7] = biological target: T3, rat PAC1 receptor (Rattus norvegicus, UniProt P32215); assay: Binding on recombinant rat PAC1 receptor expressed in CHO cells; conditions: maximal concentration tested 10 μM peptide
T3 construct: expressed in transfected cells; host or cells: CHO cells, crude membranes
T3 sequence (P32215 20-523): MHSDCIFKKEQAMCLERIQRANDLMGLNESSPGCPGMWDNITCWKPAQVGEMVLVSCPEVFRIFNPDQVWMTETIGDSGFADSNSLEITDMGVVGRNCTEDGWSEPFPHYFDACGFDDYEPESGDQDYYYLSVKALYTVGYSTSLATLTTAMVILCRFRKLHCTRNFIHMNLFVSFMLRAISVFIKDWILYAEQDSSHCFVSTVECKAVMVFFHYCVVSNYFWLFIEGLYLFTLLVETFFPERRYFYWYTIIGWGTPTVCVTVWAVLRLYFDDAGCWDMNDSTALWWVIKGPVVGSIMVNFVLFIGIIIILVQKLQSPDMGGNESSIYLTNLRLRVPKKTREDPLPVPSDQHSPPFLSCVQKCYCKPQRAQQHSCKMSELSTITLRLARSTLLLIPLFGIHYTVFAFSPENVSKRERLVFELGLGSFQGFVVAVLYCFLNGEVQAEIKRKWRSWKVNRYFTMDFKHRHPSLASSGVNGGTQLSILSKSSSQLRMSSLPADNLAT
Procedure: as §1

[8] = adenylate cyclase activation, rat VPAC2 membranes, with standard error, read-out: VPAC2 EC50 (log M) (converted)
[9] = adenylate cyclase activation, rat VPAC1 membranes, with standard error, read-out: VPAC1 EC50 (log M) (converted)
[10] = IC50 of tracer inhibition, 125I-RO 25-1553, with standard error, read-out: RAT VPAC2 IC50 (log M) (converted)
[11] = IC50 of tracer inhibition, 125I-VIP, with standard error, read-out: RAT VPAC1 IC50 (log M) (converted)

Molecule | EC50 [1] [nM] | AUC(0-t) ([2]; 10 ug/kg) [nM·h] | Cmax ([2]; 10 ug/kg) [nM] | half-life ([2]; 10 ug/kg) [min] | EC50 [3, 8] [nM] | VPAC2 cAMP max [3] | VPAC1/VPAC2 ratio of EC50 ([3]; adenylate cyclase activation) | EC50 [4, 9] [nM] | VPAC1 cAMP max [4] | IC50 [5, 10] [nM] | VPAC1/VPAC2 ratio between the IC50 values (index of selectivity) [5] | AUC(0-t) ([2]; 0.5 ug/kg) [nM·h] | Cmax ([2]; 0.5 ug/kg) [nM] | half-life ([2]; 0.5 ug/kg) [min] | IC50 [6, 11] [nM] | binding (tracer displacement) [7] | EC50 [3] [nM] | EC50 [4] [nM] | IC50 [5] [nM] | IC50 [6] [nM]
Hexanoyl-HSDAVFTDNYTRLR[Aib]QVAAK[Aib]YLQSIKNKRYGGPSSGAPPPS [Agonist P264] | 0.1 | 0.06 | 0.96 | 1.3 |  |  |  |  |  |  |  |  |  |  |  |  |  |  |  | 
CCCCCC(=O)N[C@@H](Cc1c[nH]cn1)C(=O)N[C@@H](CO)C(=O)N[C@@H](CC(=O)O)C(=O)N[C@@H](C)C(=O)N[C@H](C(=O)N[C@@H](Cc1ccccc1)C(=O)N[C@H](C(=O)N[C@@H](CC(=O)O)C(=O)N[C@@H](CC(N)=O)C(=O)N[C@@H](Cc1ccc(O)cc1)C(=O)N[C@H](C(=O)N[C@@H](CCCNC(=N)N)C(=O)N[C@@H](CC(C)C)C(=O)N[C@@H](CCCNC(=N)N)C(=O)NC(C)(C)C(=O)N[C@@H](CCC(N)=O)C(=O)N[C@@H](CC(C)C)C(=O)N[C@@H](C)C(=O)N[C@@H](C)C(=O)NC(C)(C)C(=O)N[C@@H](CCCCN)C(=O)N[C@@H](Cc1ccc(O)cc1)C(=O)N[C@@H](CC(C)C)C(=O)N[C@@H](CCC(N)=O)C(=O)N[C@@H](CO)C(=O)N[C@H](C(=O)N[C@@H](CCCCN)C(=O)N[C@@H](CC(N)=O)C(=O)N[C@@H](CCCCN)C(=O)NCC(=O)NCC(=O)N1CCC[C@H]1C(=O)N[C@@H](CO)C(=O)N[C@@H](CO)C(=O)NCC(=O)N[C@@H](C)C(=O)N1CCC[C@H]1C(=O)N1CCC[C@H]1C(=O)N1CCC[C@H]1C(=O)N[C@@H](CO)C(=O)O)[C@@H](C)CC)[C@@H](C)O)[C@@H](C)O)C(C)C [Agonist P292] (Hexanoyl-HSDAVFTDNYTRLR[Aib]QLAA[Aib]KYLQSIKNKGGPSSGAPPPS-OH; C-terminus assumed) | 0.07 | 0.688 | 5.37 | 5.5 | 0.115 | 79.1 | 100 | 11.5 | 124 | 0.759 | 269 | 0.0167 | 0.12 | 15 | 204 |  |  |  |  | 
Hexanoyl-HSDAVFTDNYTRLLAKLALQKYLQSIKNKRYGGPSSGAPPPS [Agonist P119] |  |  |  |  | 0.0912 | 133 ± 18 | 32 | 2.9 | 207 ± 13 | 0.618 | 47 |  |  |  | 29.2 | incomplete tracer displacement |  |  |  | 
H-MHSDAVFTDNYTRLRKQVAAKKYLQSIKNKRYGGPSSGAPPPS [Agonist P104] |  |  |  |  |  | 129 ± 19 | 184 |  | 195 ± 18 |  | 977 |  |  |  |  | incomplete tracer displacement | 1.01 | 186 | 1.8 | 1760
Hexanoyl-HSDAVFTDNYTRLRKQVAAKKYLQSIKNKRYGGPSSGAPPPS [Agonist P31] |  | 0.308 | 4.37 | 12 | 0.145 | 134 ± 12 | 174 | 25.2 | 200 ± 13 | 0.385 | 546 |  |  |  | 210 | incomplete tracer displacement |  |  |  | 
Hexanoyl-HSDAVFTDNYTRLR[Aib]QVAA[Aib]KYLQSIKNKRYGGPSSGAPPPS [Agonist P261] | 0.04 | 0.898 | 12.1 | 3.2 | 0.0631 | 78.5 | 200 | 12.6 | 126 | 0.355 | 363 |  |  |  | 129 |  |  |  |  | 

— US20080026996A1, “Selective Vpac2 Receptor Reptide Agonists” (ELI LILLY AND COMPANY, priority 2004, published 2008)
